Reference: patent US20240158377A1, “NOVEL SALT FORMS OF A 4H-PYRAN-4-ONE STRUCTURED CYP11A1 INHIBITOR” (Orion Corporation, priority 2021, published 2024)
Counter-ions that a name gives are not always drawn. Each block holds one compound with its values, some of them ahead of it.

Assays:
Type in all cases: physicochemical
[1] = Weight loss of the salts during heating by thermogravimetric analysis (TGA); settings: for Weight loss: TGA, heating rate 10° C./min, open pan
Description: Weight loss of the salts during heating was determined by thermogravimetric analysis (TGA) thermograms collected on TGA equipment (TA Instruments). Heating rate 10° C./min, 25-300° C., open pan.
Weight loss of each salt of compound (I) during heating was determined by thermogravimetric analysis (TGA) thermograms collected on TGA equipment (TA Instruments). Heating rate 10° C./min, 25-300° C., open pan.

[2] = as above; settings: heating rate 10° C./min, 30-250° C., open pan, weight loss over 30-200° C.
[3] = Chemical stability: accelerated stability study of pressed tablets, degradation product A, prediction with ASAPprime software; settings: summary statement
Description: The degradation rate of various salts of compound (I) was determined by measuring the amount of shelf-life determining degradation product 2-[(5-{[1-(methanesulfonyl)piperidin-4-yl]methoxy}-4-oxo-4H-pyran-2-yl)methyl]-2,3-dihydro-1H-isoindol-1 -one (degradation product A) from an accelerated stability study wherein samples were stored at various different temperature and relative humidity conditions. Each sample consisted of a pressed tablet containing a constant amount of the tested salt together with conventional excipients. The predicted increase (Δ %) of the degradation product A after 5 years was calculated with ASAPprime® software using the following parameters: • Bottle volume and material: 100 ml (HDPE HIS) • Desiccant: Silica (1 g) • Tablet amount: 60 • Conditions: 25° C./60% RH

Weight loss ([1]; weight loss over 25-100° C.): 9.9%
Structure (SMILES): CS(=O)(=O)N1CCC(COc2coc(CN3Cc4ccccc4C3)cc2=O)CC1 [1,2-Ethanedisulfonic acid salt, 2-(isoindolin-2-ylmethyl)-5-((1-(methylsulfonyl)piperidin-4-yl)methoxy)-4H-pyran-4-one]

Weight loss ([1]; weight loss over 25-220° C.): 0.3%
Structure (SMILES): O=S(=O)(O)c1cccc2c(S(=O)(=O)O)cccc12 [1,5-Naphthalenedisulfonic acid]

Weight loss ([1]; weight loss over 25-205° C.): 0.9%
Structure (SMILES): CS(=O)(=O)N1CCC(COc2coc(CN3Cc4ccccc4C3)cc2=O)CC1 [Nitric acid salt, 2-(isoindolin-2-ylmethyl)-5-((1-(methylsulfonyl)piperidin-4-yl)methoxy)-4H-pyran-4-one]

Weight loss ([1]; weight loss over 25-175° C.): 0.4%
Structure (SMILES): CS(=O)(=O)N1CCC(COc2coc(CN3Cc4ccccc4C3)cc2=O)CC1 [Oxalic acid salt (form 1), 2-(isoindolin-2-ylmethyl)-5-((1-(methylsulfonyl)piperidin-4-yl)methoxy)-4H-pyran-4-one]

Weight loss ([1]; weight loss over 25-220° C.): 0.1%
Structure (SMILES): CS(=O)(=O)N1CCC(COc2coc(CN3Cc4ccccc4C3)cc2=O)CC1 [hydrobromic acid salt, 2-(isoindolin-2-ylmethyl)-5-((1-(methylsulfonyl)piperidin-4-yl)methoxy)-4H-pyran-4-one]

The remaining lines, values behind:

Structure (SMILES): O=S(=O)(O)c1ccc2ccccc2c1 [2-Naphthalenesulphonic acid]
Weight loss ([1]; weight loss over 25-225° C.): <0.1%

Structure (SMILES): CS(=O)(=O)N1CCC(COc2coc(CN3Cc4ccccc4C3)cc2=O)CC1 [Benzenesulfonic acid salt, 2-(isoindolin-2-ylmethyl)-5-((1-(methylsulfonyl)piperidin-4-yl)methoxy)-4H-pyran-4-one]
Weight loss ([1]; weight loss over 25-220° C.): 0.3%

Structure (SMILES): CS(=O)(=O)N1CCC(COc2coc(CN3Cc4ccccc4C3)cc2=O)CC1 [Ethanesulfonic acid salt, 2-(isoindolin-2-ylmethyl)-5-((1-(methylsulfonyl)piperidin-4-yl)methoxy)-4H-pyran-4-one]
Weight loss ([1]; weight loss over 25-190° C.): <0.3%

Structure (SMILES): CS(=O)(=O)N1CCC(COc2coc(CN3Cc4ccccc4C3)cc2=O)CC1 [Hydrochloric acid salt (form 3), 2-(isoindolin-2-ylmethyl)-5-((1-(methylsulfonyl)piperidin-4-yl)methoxy)-4H-pyran-4-one]
Weight loss ([1]; weight loss over 25-190° C.): 0.5%

Structure (SMILES): CS(=O)(=O)N1CCC(COc2coc(CN3Cc4ccccc4C3)cc2=O)CC1 [Maleic acid salt (form 3), 2-(isoindolin-2-ylmethyl)-5-((1-(methylsulfonyl)piperidin-4-yl)methoxy)-4H-pyran-4-one]
Weight loss ([1]; weight loss over 25-120° C.): 3.2%

Structure (SMILES): CS(=O)(=O)N1CCC(COc2coc(CN3Cc4ccccc4C3)cc2=O)CC1 [Methanesulfonic acid salt, 2-(isoindolin-2-ylmethyl)-5-((1-(methylsulfonyl)piperidin-4-yl)methoxy)-4H-pyran-4-one]
Weight loss ([1]; weight loss over 25-75° C.): 5%

Structure (SMILES): CS(=O)(=O)N1CCC(COc2coc(CN3Cc4ccccc4C3)cc2=O)CC1 [Sulfuric acid salt (form 2), 2-(isoindolin-2-ylmethyl)-5-((1-(methylsulfonyl)piperidin-4-yl)methoxy)-4H-pyran-4-one]
Weight loss ([1]; weight loss over 25-100° C.): 8%

Structure (SMILES): CS(=O)(=O)N1CCC(COc2coc(CN3Cc4ccccc4C3)cc2=O)CC1 [p-toluenesulfonic acid salt, 2-(isoindolin-2-ylmethyl)-5-((1-(methylsulfonyl)piperidin-4-yl)methoxy)-4H-pyran-4-one]
Weight loss [2]: 0.2% | weight loss during heating (in words) ([1]; crystalline salt, summary statement): low weight loss during heating | solid-state stability in pharmaceutical dosage forms such as tablets (in words) [3]: excellent sold-state stability
